One data set has as its system Oryctolagus sp. The note with it: developmental; development.
The next data set concerns Apis mellifera. The note with it: acute; duration: 48 hours; dermal; mortality.
The next data set relates to Lepomis macrochirus. The note with it: acute; duration: 96 hours; mortality.
Another data set deals with Daphnia magna. As to conditions: chronic/long-term; duration: 21 days; reproduction.
A further data set has as its system Rattus norvegicus. As to conditions: for LD50: acute, mortality.
Another data set deals with Canidae. As to conditions: subchronic; duration: 90 days; oral; Dog Other; histopathology: nonneoplastic.
Another data set relates to Tagia sp. The note with it: acute; duration: 14 days; mortality.
A further data set concerns Macromiidae. The note with it: acute; duration: 72 hours; biomass.
The test system of the next data set is Pimephales promelas. The note with it: chronic/long-term; duration: 37 days; growth.
The test system of a further data set is Landoltia sp. As to conditions: acute; duration: 14 days; frond number.
A further data set relates to Cyprinus carpio. As to conditions: acute; duration: 96 hours; mortality.
A further data set relates to Pleurozium sp. The note with it: chronic/long-term; duration: 120 hours; growth.
A further data set concerns Poecilus cupreus. The data set is described as follows: LR50; higher = less toxic. As to conditions: acute; mortality.

The record followed here is EPA's ToxValDB 9.5 (doi:10.2903/j.efsa.2014.3815).

SMILES strings stand for the structures. Bounds are passed on as bounds.

With `COc1nc(C)nc(NC(=O)NS(=O)(=O)c2ccccc2CCC(F)(F)F)n1` [Prosulfuron], the NOAEL in the data set on Oryctolagus sp. stood at 10 mg/kg-day; in the data set with Rattus norvegicus (chronic), 12 mg/kg-day; in the data set with Rattus norvegicus (chronic, duration: 18 months, histopathology: nonneoplastic), 1.7 mg/kg-day; in the data set on Rattus norvegicus (subchronic, duration: 90 days) it was 3 mg/kg-day; in the data set with Canidae it was 6 mg/kg-day. For the same molecule, the LD50 in the data set with Apis mellifera was > 100 µg/piece; in the data set on Rattus norvegicus (M/F), 986 mg/kg; in the data set on Rattus norvegicus, > 755 mg/kg; in the data set with Anas platyrhynchos (acute, oral, unspecified, mortality), 1300 mg/kg. Moreover, the LC50 with Lepomis macrochirus is > 100 mg/L; in the data set on Tagia sp. it was > 1000 mg/kg; in the data set on Oncorhynchus mykiss (acute, duration: 96 hours, mortality) it was > 160 mg/L; in the data set on Cyprinus carpio, > 100 mg/L. Moreover, the NOEC in the data set with Daphnia magna came out at 148 mg/L; with Oncorhynchus mykiss (chronic/long-term, duration: 21 days, growth), 5.8 mg/L; in the data set on Macromiidae it was 0.831 mg/L; in the data set with Pimephales promelas it was 150 mg/L; with Landoltia sp., 0.000827 mg/L; in the data set on Pleurozium sp. it was 0.00278 mg/L. Further, in the data set on Anas platyrhynchos (reproductive), the NOEL was found to be 2.95 mg/kg-day. The LR50 in the data set with Poecilus cupreus was > 15 g/ha.

For orientation: NOAEL means the highest dose or exposure tested at which no adverse effect was seen.
